Experimental data taken from article PMC7914897, “Cytotoxic Potential of a-Azepano- and 3-Amino-3,4-SeCo-Triterpenoids” (International Journal of Molecular Sciences, 2021).
Like-named read-outs stand apart in the source and are kept apart here.

Assays:
LOX IMVI (Melanoma) = assay: NCI-60 screen (SRB, 48 h); assay type: cell-based; conditions: Homo sapiens
BT-549 (Breast cancer) = assay: NCI-60 screen (SRB, 48 h); assay type: cell-based; conditions: Homo sapiens
Leukemia subpanel = assay: cells; conditions: Homo sapiens
OVCAR-3 (Ovarian cancer) = assay: cells; conditions: Homo sapiens
Colon Cancer subpanel = assay: NCI-60 screen, subpanel; conditions: Homo sapiens
Melanoma subpanel = assay: NCI-60 screen, subpanel; conditions: Homo sapiens
Prostate cancer subpanel = assay: NCI-60 screen, subpanel; conditions: Homo sapiens
Breast cancer subpanel = assay: NCI-60 screen, subpanel; conditions: Homo sapiens
CCRF-CEM (Leukemia) = assay: NCI-60 screen (SRB, 48 h); conditions: Homo sapiens
K-562 (Leukemia) = assay: NCI-60 screen (SRB, 48 h); conditions: Homo sapiens
[1] = system: A549/ATCC (NSC lung cancer); assay: NCI-60 screen (SRB, 48 h); conditions: Homo sapiens
[2] = system: NCI-H23 (NSC lung cancer); assay: NCI-60 screen (SRB, 48 h); conditions: Homo sapiens
[3] = system: NCI-H322M (NSC lung cancer); assay: NCI-60 screen (SRB, 48 h); conditions: Homo sapiens
HCT-15 (Colon cancer) = assay: NCI-60 screen (SRB, 48 h); conditions: Homo sapiens
HT29 (Colon cancer) = assay: NCI-60 screen (SRB, 48 h); conditions: Homo sapiens
U251 (CNS cancer) = assay: NCI-60 screen (SRB, 48 h); conditions: Homo sapiens
SK-MEL-2 (Melanoma) = assay: NCI-60 screen (SRB, 48 h); conditions: Homo sapiens
SK-MEL-28 (Melanoma) = assay: NCI-60 screen (SRB, 48 h); conditions: Homo sapiens
UACC-257 (Melanoma) = assay: NCI-60 screen (SRB, 48 h); conditions: Homo sapiens
IGROV1 (Ovarian cancer) = assay: NCI-60 screen (SRB, 48 h); conditions: Homo sapiens
[4] = system: NCI/ADR-RES (Ovarian cancer); assay: NCI-60 screen (SRB, 48 h); conditions: Homo sapiens
SN12C (Renal cancer) = assay: NCI-60 screen (SRB, 48 h); conditions: Homo sapiens
UO-31 (Renal cancer) = assay: NCI-60 screen (SRB, 48 h); conditions: Homo sapiens
DU-145 (Prostate cancer) = assay: NCI-60 screen (SRB, 48 h); conditions: Homo sapiens
[5] = system: MDA-MB-31/ATCC (Breast cancer); assay: NCI-60 screen (SRB, 48 h); conditions: Homo sapiens
HS 578T (Breast cancer) = assay: NCI-60 screen (SRB, 48 h); conditions: Homo sapiens
[6] = system: panel of approximately 60 cancer cell lines; assay: NCI-60 screen (SRB, 48 h), full panel

## C=C(C)[C@@H]1CC[C@]2(C)[C@H](C=CC3=C4C[C@@](C)(CO)CC[C@]4(C)CC[C@]32C)[C@@]1(C)CCCN [Compound 20]
LOX IMVI (Melanoma); 48 h
  IC (TGI): 2.7 µM
LOX IMVI (Melanoma); 48 h, 1 dose 10 µM, read-out: Growth % of the Most Sensitive Cell Lines
  activity at 10 µM: -100%
LOX IMVI (Melanoma); read-out: GI50
  GI50: 1.37 µM
LOX IMVI (Melanoma); read-out: LC50 (the source's name)
  CC50: 5.31 µM
BT-549 (Breast cancer); BT-549
  GI50: 1.64 µM
BT-549 (Breast cancer); BT-549, 48 h
  IC (TGI): 3.07 µM
BT-549 (Breast cancer); BT-549, read-out: LC50 (the source's name)
  CC50: 5.78 µM
Leukemia subpanel; 48 h, read-out: TGI MG_MID
  IC (TGI): 4.52 µM
Leukemia subpanel; read-out: GI50 MG_MID
  GI50: 1.82 µM
Leukemia subpanel; read-out: LC50 MG_MID
  CC50: > 100 µM
OVCAR-3 (Ovarian cancer); OVCAR-3
  GI50: 1.48 µM
OVCAR-3 (Ovarian cancer); OVCAR-3, 48 h, read-out: TGI
  IC (TGI): 2.85 µM
OVCAR-3 (Ovarian cancer); OVCAR-3, read-out: LC50
  CC50: 5.46 µM
Colon Cancer subpanel; 48 h, read-out: TGI MG_MID
  IC (TGI): 2.98 µM
Colon Cancer subpanel; read-out: GI50 MG_MID
  GI50: 1.47 µM
Colon Cancer subpanel; read-out: LC50 MG_MID
  CC50: 5.96 µM
Melanoma subpanel; 48 h, read-out: TGI MG_MID
  IC (TGI): 3.22 µM
Melanoma subpanel; read-out: GI50 MG_MID
  GI50: 1.71 µM
Melanoma subpanel; read-out: LC50 MG_MID
  CC50: 6.09 µM
Prostate cancer subpanel; 48 h, read-out: TGI MG_MID
  IC (TGI): 3.22 µM
Prostate cancer subpanel; read-out: GI50 MG_MID
  GI50: 1.71 µM
Breast cancer subpanel; 48 h, read-out: TGI MG_MID
  IC (TGI): 3.41 µM
Breast cancer subpanel; read-out: GI50 MG_MID
  GI50: 1.68 µM
Breast cancer subpanel; read-out: LC50 MG_MID
  CC50: 6.94 µM
CCRF-CEM (Leukemia)
  GI50: 2.12 µM
CCRF-CEM (Leukemia); 48 h, read-out: TGI
  IC (TGI): 5.56 µM
CCRF-CEM (Leukemia); read-out: LC50
  CC50: > 100 µM
K-562 (Leukemia); K562
  GI50: 1.8 µM
K-562 (Leukemia); K562, 48 h, read-out: TGI
  IC (TGI): 5.04 µM
K-562 (Leukemia); K562, read-out: LC50
  CC50: > 100 µM
[1]; A549
  GI50: 1.6 µM
[1]; A549, 48 h, read-out: TGI
  IC (TGI): 3.18 µM
[1]; A549, read-out: LC50
  CC50: 6.34 µM
[2]; NCI-H23
  GI50: 1.77 µM
[2]; NCI-H23, 48 h, read-out: TGI
  IC (TGI): 3.32 µM
[2]; NCI-H23, read-out: LC50
  CC50: 6.24 µM
[3]
  GI50: 1.57 µM
[3]; 48 h, read-out: TGI
  IC (TGI): 2.91 µM
[3]; read-out: LC50
  CC50: 5.43 µM
HCT-15 (Colon cancer); HCT-15
  GI50: 1.53 µM
HCT-15 (Colon cancer); HCT-15, 48 h, read-out: TGI
  IC (TGI): 2.92 µM
HCT-15 (Colon cancer); HCT-15, read-out: LC50
  CC50: 5.56 µM
HT29 (Colon cancer); HT-29
  GI50: 1.63 µM
HT29 (Colon cancer); HT-29, 48 h, read-out: TGI
  IC (TGI): 3.28 µM
HT29 (Colon cancer); HT-29, read-out: LC50
  CC50: 6.59 µM
U251 (CNS cancer); U-251
  GI50: 1.64 µM
U251 (CNS cancer); U-251, 48 h, read-out: TGI
  IC (TGI): 3.32 µM
U251 (CNS cancer); U-251, read-out: LC50
  CC50: 6.72 µM
SK-MEL-2 (Melanoma); SK-MEL-2
  GI50: 1.92 µM
SK-MEL-2 (Melanoma); SK-MEL-2, 48 h, read-out: TGI
  IC (TGI): 3.58 µM
SK-MEL-2 (Melanoma); SK-MEL-2, read-out: LC50
  CC50: 6.66 µM
SK-MEL-28 (Melanoma); SK-MEL-28
  GI50: 1.82 µM
SK-MEL-28 (Melanoma); SK-MEL-28, 48 h, read-out: TGI
  IC (TGI): 3.25 µM
SK-MEL-28 (Melanoma); SK-MEL-28, read-out: LC50
  CC50: 5.8 µM
UACC-257 (Melanoma); UACC-257
  GI50: 1.82 µM
UACC-257 (Melanoma); UACC-257, 48 h, read-out: TGI
  IC (TGI): 3.65 µM
UACC-257 (Melanoma); UACC-257, read-out: LC50
  CC50: 7.14 µM
IGROV1 (Ovarian cancer); IGROV-1
  GI50: 1.5 µM
IGROV1 (Ovarian cancer); IGROV-1, 48 h, read-out: TGI
  IC (TGI): 2.95 µM
IGROV1 (Ovarian cancer); IGROV-1, read-out: LC50
  CC50: 5.8 µM
[4]
  GI50: 1.74 µM
[4]; 48 h, read-out: TGI
  IC (TGI): 3.37 µM
[4]; read-out: LC50
  CC50: 6.54 µM
SN12C (Renal cancer)
  GI50: 1.64 µM
SN12C (Renal cancer); 48 h, read-out: TGI
  IC (TGI): 3.15 µM
SN12C (Renal cancer); read-out: LC50
  CC50: 6.03 µM
UO-31 (Renal cancer); UO-31
  GI50: 1.34 µM
UO-31 (Renal cancer); UO-31, 48 h, read-out: TGI
  IC (TGI): 2.65 µM
UO-31 (Renal cancer); UO-31, read-out: LC50
  CC50: 5.24 µM
DU-145 (Prostate cancer); DU-145
  GI50: 1.72 µM
DU-145 (Prostate cancer); DU-145, 48 h, read-out: TGI
  IC (TGI): 3.15 µM
DU-145 (Prostate cancer); DU-145, read-out: LC50
  CC50: 5.78 µM
[5]
  GI50: 1.77 µM
[5]; 48 h, read-out: TGI
  IC (TGI): 3.27 µM
[5]; read-out: LC50
  CC50: 6.02 µM
HS 578T (Breast cancer)
  GI50: 1.8 µM
HS 578T (Breast cancer); 48 h, read-out: TGI
  IC (TGI): 4.07 µM
HS 578T (Breast cancer); read-out: LC50
  CC50: 9.2 µM
[6]; 1 dose 10 µM
  Positive Cytostatic Effect (cell lines with percent growth 0 to 50 / total): 8/60
  Positive Cytotoxic Effect (cell lines with percent growth < 0 / total): 46/60
  number of cancer cell lines the compound was active against: 52 cell lines
[6]; Homo sapiens, 48 h, read-out: Mean Growth, %
  activity at 10 µM: -36.5%
[6]; Homo sapiens, 48 h, read-out: Range of Growth, %
  activity at 10 µM: -100 to 90.8%
[6]; Homo sapiens, 48 h, read-out: TGI MG_MID60, average over all cell lines
  IC (TGI): 3.36 µM
[6]; Homo sapiens, read-out: GI50 MG_MID60
  GI50: 1.66 µM
[6]; Homo sapiens, read-out: GI50 against all human tumor cell lines
  GI50: < 3 µM
[6]; Homo sapiens, read-out: GI50 against the most sensitive cell lines
  GI50: 0.2 to 0.94 µM
[6]; Homo sapiens, read-out: LC50 MG_MID60, average over all cell lines
  CC50: 17.3 µM
